Experimental data taken from paper PMC5271370, “A High-Content Assay Enables the Automated Screening and Identification of Small Molecules with Specific ALDH1A1-Inhibitory Activity” (PLoS ONE, 2017).

The compounds below were run against T1, Human ALDH1A2 (Homo sapiens, UniProt O94788) (assay: 1,536-well enzymatic assay (NADH fluorescence), ALDH1A2). Conditions: not given.
T1 construct: purchased MyBioSource MBS1005929
T1 sequence (O94788 1-518): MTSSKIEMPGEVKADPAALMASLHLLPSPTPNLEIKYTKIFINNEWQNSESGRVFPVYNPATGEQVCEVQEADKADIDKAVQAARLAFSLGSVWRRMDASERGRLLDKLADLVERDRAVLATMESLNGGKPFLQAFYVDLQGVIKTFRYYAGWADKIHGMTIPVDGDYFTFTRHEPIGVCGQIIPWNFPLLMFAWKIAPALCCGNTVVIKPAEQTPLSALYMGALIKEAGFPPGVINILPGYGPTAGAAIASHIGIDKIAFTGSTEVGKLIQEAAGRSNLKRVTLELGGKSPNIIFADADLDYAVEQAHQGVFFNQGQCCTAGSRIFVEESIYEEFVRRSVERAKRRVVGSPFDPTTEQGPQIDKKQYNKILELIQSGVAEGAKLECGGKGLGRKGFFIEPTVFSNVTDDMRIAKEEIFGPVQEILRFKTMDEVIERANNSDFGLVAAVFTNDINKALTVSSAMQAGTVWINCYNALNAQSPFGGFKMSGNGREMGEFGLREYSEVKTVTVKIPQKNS
Type: biochemical
From the text: To validate our optimized assay, we assembled a set of 20 previously reported ALDH inhibitors, with varying degrees of target specificity (Table 1 and S4 Fig). […] Briefly, the assay measures the dehydrogenase activity of recombinant human ALDH1A1, ALDH1A2, ALDH1A3, ALDH2 or ALDH3A1 using NAD(P)^+ and either propionaldehyde or benzaldehyde as substrates. An orthogonal resorufin-based assay format was also run with isolated ALDH1A1 to rule out potential false positives due to intrinsic compound fluorescence.
Human ALDH1A1 and ALDH3A1 were expressed and purified as described elsewhere. Human ALDH2 was purchased from Abcam (ab87415). Human ALDH1A2 and ALDH1A3 were purchased from MyBioSource (MBS1005929; San Diego, CA) and ThermoFisher (11636H07E50), respectively. The inhibitory activity of compounds against ALDHs was measured according to protocols described previously. Briefly, 3 μL of enzyme (final concentrations of 20 nM for ALDH1A1, 50 nM for ALDH1A2, 50 nM for ALDH1A3, 75 nM for ALDH2 and 5 nM for ALDH3A1) in assay buffer (100 mM HEPES pH 7.5 with 0.01% Tween 20) were dispensed into a 1,536-well solid-bottom black plate (Greiner Bio One, Monroe, NC). […] Samples were incubated (room temperature, protected from light) for 15 minutes followed by a 1 μL substrate addition of NAD^+ and Propionaldehyde (final concentrations of 1 mM and 80 μM, respectively) for ALDH1A1, 1A2, 1A3, and ALDH2 or NADP^+ and benzaldehyde (final concentrations of 1 mM and 200 μM, respectively) for ALDH3A1. Plates were centrifuged at 1,000 rpm for 15 seconds, then read in kinetic mode on a ViewLux High-throughput CCD imager (PerkinElmer, Waltham, MA) equipped with standard UV fluorescence optics (340 nm excitation, 450 nm emission) for 5 (ALDH1A1, ALDH1A2, ALDH2, ALDH3A1) or 30 (ALDH1A3) minutes. The change in fluorescence intensity over the 5- or 30-minute reaction period was normalized against no-inhibitor and no-enzyme controls and the resulting percent inhibition data were fitted to a 4-parameter Hill equation. Bay-11 7085 was used as intraplate control. To account for artifacts due to intrinsic compound fluorescence in the above spectrum, compounds were also tested in an orthogonal resorufin assay format with optics of excitation 525 nm/emission 598 nm as described before. The same parameters as the NADH assay were used for the resorufin assay, with the addition of (final) 133 μg/mL diaphorase and 37 μM resazurin to the assay solution. Same controls were used in both formats.
In the case of `Cc1cc2c(C(C)C)c(O)c(O)c(C=O)c2c(O)c1-c1c(C)cc2c(C(C)C)c(O)c(O)c(C=O)c2c1O` [Gossypol], the IC50 is reported as 5.39 µM. In the case of `O=c1c(-c2ccc(O)cc2)coc2cc(O[C@@H]3O[C@H](CO)[C@@H](O)[C@H](O)[C@H]3O)ccc12` [Daidzin], the IC50 is reported as 21.5 µM.

Same assay, conditions: hits of dual cell-based screen (Table 2); read-out: Biochemical IC50 ALDH1A2
`CC(C)N(C(=O)CCl)c1ccccc1` [Propachlor] was tested, and the IC50 was 0.32 µM.

Same assay, conditions: validation set; 50 nM enzyme, NAD+ and propionaldehyde; read-out: Biochemical IC50 ALDH1A2
For `COc1ccc(C(=O)CCN(C)C)cc1F` [Aldi-2], the IC50 was 0.12 µM. Work on `Cc1nc2ccccc2n1S(=O)(=O)c1ccc(F)cc1` [CB7] yielded an IC50 of 15.2 µM. `COc1cccc2cc(C(=O)CC3(O)C(=O)N(Cc4ccccc4)c4ccccc43)c(=O)oc12` (centres unmarked) [CID 2929292] was tested, and the IC50 was 3.03 µM. CVT-10216 showed an IC50 of 0.34 µM. With `CC(C)(C)c1ccc(S(=O)(=O)/C=C/C#N)cc1` [Bay-11-7085] the IC50 was 0.38 µM. `CCOc1ccc(NCC(=O)Nc2ccc(Cl)cc2C)cc1` [CID 725345] was tested, and the IC50 was 0.34 µM. Work on `CCN(CC)C(=S)SSC(=S)N(CC)CC` [Disulfiram] yielded an IC50 of 0.14 µM. Compound `CCN(CC)c1ccc(C=O)cc1` [DEAB, 4-N,N-diethylaminobenzaldehyde] has an IC50 of 3.4 µM. `O=C1Nc2ccccc2C1=O` [indoline-2,3-dione] was tested, and the IC50 was 0.68 µM. With `Nc1ccccc1C(=O)CC(N)C(=O)O` (centres unmarked) [Kynurenine] the IC50 was 24.1 µM. `C#CCN(C)Cc1ccccc1` [Pargyline] gave an IC50 of 24.1 µM.
